Results on 2 compounds are retold here after paper PMC9380671, “Development of spiro-3-indolin-2-one containing compounds of antiproliferative and anti-SARS-CoV-2 properties” (Scientific Reports, 2022).

Assay [1] relates to HCT116 (colon) cancer cell line. Description: MTT antiproliferation, HCT116. The note with it: for IC50: Homo sapiens, HCT-116, 72 h, read-out: IC50 (µM) ± SEM HCT116; for SI (selectivity index) HCT116: IC50 of RPE1/IC50 of cancer cell line. It counts as cell-based, human. A digest of the protocol:
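Cells seeded 30000/well for 24 h, then treated for 72 h with triplicate wells per dose; 0.5% DMSO as negative control. MTT (2.5 mg ml^-1) added for 4 h at 37 °C, crystals dissolved in 10% SDS overnight. Surviving fraction = O.D. treated / O.D. control.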

Assay [2] concerns PaCa2 (pancreatic) cancer cell line. Briefly: MTT antiproliferation, PaCa-2. It is filed as cell-based, human. To be noted: for IC50: Homo sapiens, PaCa-2, 72 h, read-out: IC50 (µM) ± SEM PaCa-2; for SI (selectivity index) PaCa-2: IC50 of RPE1/IC50 of cancer cell line.
The test system of assay [3] is RPE1 (normal human immortalized retinal pigment epithelial cell line). Briefly: MTT toxicity towards normal cells, RPE1. It is filed as cell-based. The note with it: RPE-1, read-out: IC50 (µM) ± SEM RPE1.

As to `CCS(=O)(=O)N1C/C(=C\c2ccc(Cl)cc2)C(=O)C2(C1)C(c1ccc(Cl)cc1)CN(C)C21C(=O)Nc2ccc(Cl)cc21` (stereo not shown) [Compound 6l, (E)-5-Chloro-5″-(4-chlorobenzylidene)-4′-(4-chlorophenyl)-1″-(ethylsulfonyl)-1′-methyldispiro[indoline-3,2′-pyrrolidine-3′,3″-piperidine]-2,4″-dione], the IC50 in assay [1] is 4.11 ± 0.41 µM; in assay [2], 11.9 ± 0.83 µM; in assay [3] it was above 50 µM. Also, the “SI (selectivity index) HCT116” value in assay [1] was above 12.2. For the same compound, the “SI (selectivity index) PaCa-2” value in assay [2] is above 4.2.
For `CN1CC(c2ccc(Br)cc2)C2(CN(S(C)(=O)=O)C/C(=C\c3ccc(Br)cc3)C2=O)C12C(=O)Nc1ccccc12` (stereo not shown) [Compound 6m, (E)-5″-(4-Bromobenzylidene)-4′-(4-bromophenyl)-1′-methyl-1″-(methylsulfonyl)dispiro[indoline-3,2′-pyrrolidine-3′,3″-piperidine]-2,4″-dione] the same measures were 3.24 ± 0.27 µM, 12.5 ± 0.67 µM, 14.9 ± 1.61 µM, 4.6 and 1.2.
